Measured values reported in US7101915B1, “P-terphenyl compounds” (Shionogi & Co., Ltd., priority 1996, dated 2006).
Converted amounts (≈) assume the structure as drawn.

Columns and labels:
Type in all cases: cell-based
Details in all cases: EL-4, TPA 10 ng/ml, 24 hours, ELISA; for IC50: Mus musculus, T-cell
[1] = tested on: IL-4 production of mouse T cell strain EL-4 (TPA); assay: Suppressive effect on the cytokine production of mouse T cell strain EL-4: IL-4
Protocol: (§1) Experiment 8 Suppressive Effect on the Cytokine Production of a Mouse T Cell Strain EL-4 In 48-well plate were added 2×10^5 mouse T cell strain EL-4 which were suspended in 0.2 ml of 1% fetal bovine serum-added RPMI 1640 medium (2 mM of sodium bicarbonate, 50 units/ml of penicillin, 50 μg/ml of streptomycin and 5×10^−5 M of 2-mercaptoethanol were added) and the compound of the present invention of a predetermined concentration. TPA was added as a cell stimulater at a final concentration of 10 ng/ml to adjust a final volume of each well to 0.4 ml. Each compound of the present invention was dissolved in DMSO and diluted with the above RPMI 1640 medium, and then for added at a final concentration of 100 ng/ml or less. The cells in the 48-well plate were cultivated in an incubator keeping the humidity 100%, carbon dioxide 5% and air 95% at 37° C. for 24 hours to collect a supernatant of each well. The amount of IL-2, IL-4 and IL-5 released in the medium of each well were measured with the ELISA kit (Amersham K. K.) to be taken as an index of the cytokine production of the cells. TPA free group (-TPA) was used as a control.

[2] = tested on: IL-5 production of mouse T cell strain EL-4 (TPA); assay: Suppressive effect on the cytokine production of mouse T cell strain EL-4: IL-5
Protocol: as §1

[3] = tested on: IL-2 production of mouse T cell strain EL-4 (TPA); assay: Suppressive effect on the cytokine production of mouse T cell strain EL-4: IL-2
Protocol: as §1

SMILES	IC50 IL-4 [1] [µg/mL]	IC50 IL-5 [2] [µg/mL]	IC50 IL-2 [3] [µg/mL]	IC50 [1] [µg/mL]	IC50 [2] [µg/mL]	IC50 [3] [µg/mL]
COc1cc(-c2ccc(F)cc2)c(OC)c(C=O)c1-c1ccc(OCC=C(C)C)c(F)c1 [Compound I-379]	0.088 (≈ 0.201 µM)	>1	>1	–	–	–
COc1cc(-c2ccc(O)cc2)c(OC)c(O)c1-c1ccc(OC/C=C/CO)c(O)c1 [Compound I-296]	0.07 (≈ 0.165 µM)	0.047 (≈ 0.111 µM)	>1	–	–	–
COc1cc(-c2ccc(O)cc2)c(OC)c(O)c1-c1ccc(SCc2ccccn2)c(O)c1 [Compound I-223]	0.016 (≈ 0.0347 µM)	0.045 (≈ 0.0975 µM)	1 (≈ 2.17 µM)	–	–	–
COc1cc(-c2ccc(F)cc2)c(OC)c(O)c1-c1ccc(OCc2ccccc2)c(O)c1 [Compound I-4]	0.014 (≈ 0.0314 µM)	0.12 (≈ 0.269 µM)	>0.5	–	–	–
COc1cc(-c2ccc(OS(C)(=O)=O)cc2)c(OC)c(OS(C)(=O)=O)c1-c1cc(C=O)c(OCC=C(C)C)c(OS(C)(=O)=O)c1 [Compound I-128]	0.14 (≈ 0.204 µM)	0.45 (≈ 0.657 µM)	>10	–	–	–
COc1cc(-c2ccc(OS(C)(=O)=O)cc2)c(OC)c(OS(C)(=O)=O)c1-c1ccc(OCc2ccccc2)c(C(N)=O)c1 [Compound I-148]	0.1 (≈ 0.159 µM)	11 (≈ 17.5 µM)	>10	–	–	–
COc1cc(-c2ccc(N(C)C)cc2)c(OC)c(OS(C)(=O)=O)c1-c1ccc(OCC=C(C)C)c(OS(C)(=O)=O)c1 [Compound I-242]	0.1 (≈ 0.165 µM)	0.88 (≈ 1.45 µM)	>1	–	–	–
COc1ccccc1-c1cc(OC)c(-c2ccc(OCc3ccc(C)cc3)c(O)c2)c(O)c1OC [Compound I-282]	<0.005	0.13 (≈ 0.275 µM)	>0.5	–	–	–
COc1cc(-c2ccc(OS(C)(=O)=O)cc2)c(OC)c(C)c1-c1ccc(OCCC=C(C)C)c(OS(C)(=O)=O)c1 [Compound I-228]	0.021 (≈ 0.0356 µM)	0.03 (≈ 0.0508 µM)	>1	–	–	–
COc1cc(-c2ccc(SC)cc2)c(OC)c(O)c1-c1ccc(OCc2ccccc2)c(O)c1 [Compound I-233]	0.012 (≈ 0.0253 µM)	0.0038 (≈ 0.00801 µM)	>1	–	–	–
COc1cc(-c2ccc(OS(C)(=O)=O)cc2)c(OC)c(OS(C)(=O)=O)c1-c1ccc(OCc2ccc3ccccc3n2)c(OS(C)(=O)=O)c1 [Compound I-307]	0.052 (≈ 0.0713 µM)	0.023 (≈ 0.0315 µM)	>1	–	–	–
COc1cc(-c2ccc(O)cc2)c(OC)c(O)c1-c1ccc(OCC(C)=C(C)C)c(O)c1 [Compound I-213]	0.025 (≈ 0.0573 µM)	0.023 (≈ 0.0527 µM)	>1	–	–	–
COc1cc(-c2c(OC)cc(-c3ccc(OS(C)(=O)=O)cc3)c(OC)c2CO)c(OC)cc1OCc1ccc(C)cc1 [Compound I-368]	0.072 (≈ 0.121 µM)	0.38 (≈ 0.639 µM)	>1	–	–	–
COc1cc(-c2ccc(O)cc2)c(OC)c(O)c1-c1ccc(OC/C=C(\C)CCC=C(C)C)c(O)c1 [Compound I-37]	0.007 (≈ 0.0143 µM)	0.11 (≈ 0.224 µM)	>0.5	–	–	–
COc1cc(-c2ccc(C(F)(F)F)cc2)c(OC)c(OS(C)(=O)=O)c1-c1ccc(OCC=C(C)C)c(OS(C)(=O)=O)c1 [Compound I-189]	0.1 (≈ 0.159 µM)	10 (≈ 15.9 µM)	>10	–	–	–
COc1cc(-c2ccc(O)cc2)c(OC)c(C)c1-c1ccc(OCCC=C(C)C)c(O)c1 [Compound I-229]	0.042 (≈ 0.0967 µM)	0.08 (≈ 0.184 µM)	>1	–	–	–

SMILES	IC50 IL-4 [1] [µg/mL]	IC50 IL-5 [2] [µg/mL]	IC50 IL-2 [3] [µg/mL]	IC50 [1] [µg/mL]	IC50 [2] [µg/mL]	IC50 [3] [µg/mL]
COc1cc(-c2ccc(OS(C)(=O)=O)cc2)c(OC)c(CO)c1-c1ccc(OCc2ccccc2)c(CO)c1 [Compound I-243]	–	–	–	0.063 (≈ 0.114 µM)	> 0.55	> 0.5
COc1cc(-c2ccc(OS(C)(=O)=O)cc2)c(OC)c(OS(C)(=O)=O)c1-c1ccc(OCc2ccc(C(C)C)cc2)c(OS(C)(=O)=O)c1 [Compound I-305]	0.01 (≈ 0.0139 µM)	0.34 (≈ 0.472 µM)	>1	–	–	–
COc1cc(-c2ccc(OCC=C(C)C)c(OS(C)(=O)=O)c2)c(OC)cc1-c1ccc(OS(C)(=O)=O)cc1 [Compound I-70]	0.0002 (≈ 0.000355 µM)	1 (≈ 1.78 µM)	>2	–	–	–
COc1cc(-c2ccc(OS(C)(=O)=O)cc2)c(OC)c(OS(C)(=O)=O)c1-c1ccc(OCc2ccccc2)c(C=O)c1 [Compound I-83]	0.14 (≈ 0.229 µM)	1 (≈ 1.63 µM)	>10	–	–	–
COc1cc(-c2ccc(OS(C)(=O)=O)cc2)c(OC)c(C)c1-c1ccc(OCc2ccc(C)cc2)c(OS(C)(=O)=O)c1 [Compound I-230]	0.013 (≈ 0.0212 µM)	0.02 (≈ 0.0326 µM)	>1	–	–	–
COc1cc(-c2cccc(C(F)(F)F)c2)c(OC)c(O)c1-c1ccc(OCCC=C(C)C)c(O)c1 [Compound I-220]	0.15 (≈ 0.307 µM)	0.72 (≈ 1.47 µM)	>1	–	–	–
COc1cc(-c2ccc(C(F)(F)F)cc2)c(OC)c(O)c1-c1ccc(OCC=C(C)C)c(O)c1 [Compound I-190]	0.007 (≈ 0.0148 µM)	0.01 (≈ 0.0211 µM)	>0.1	–	–	–
COc1cc(-c2ccc(OS(C)(=O)=O)cc2)c(OC)c(OS(C)(=O)=O)c1-c1ccc(OCc2c(C)cc(C)cc2C)c(OS(C)(=O)=O)c1 [Compound I-202]	<0.02	<0.02	>2	–	–	–
COC(=O)c1ccc(-c2cc(OC)c(-c3ccc(OCc4ccccc4)c(OS(C)(=O)=O)c3)c(OS(C)(=O)=O)c2OC)cc1 [Compound I-238]	0.035 (≈ 0.0545 µM)	>1	>1	–	–	–
COc1cc(-c2ccc(C)cc2)c(OC)c(O)c1-c1ccc(OCCC=C(C)C)c(O)c1 [Compound I-279]	0.038 (≈ 0.0875 µM)	0.09 (≈ 0.207 µM)	>1	–	–	–
COc1cc(-c2ccc(O)cc2)c(OC)c(O)c1-c1ccc(OCC=NNC(N)=O)c(O)c1 [Compound I-302]	0.025 (≈ 0.0551 µM)	0.28 (≈ 0.617 µM)	>1	–	–	–
COc1cc(-c2ccc(O)cc2)c(OC)c(O)c1-c1ccc(OCc2ccc(C)cc2C)c(O)c1 [Compound I-309]	0.029 (≈ 0.0614 µM)	0.01 (≈ 0.0212 µM)	>0.5	–	–	–
COC(=O)c1ccc(-c2cc(OC)c(-c3ccc(OCc4ccccc4)c(O)c3)c(O)c2OC)cc1 [Compound I-237]	0.017 (≈ 0.0349 µM)	0.1 (≈ 0.206 µM)	>0.1	–	–	–
COc1cc(-c2ccc(OS(C)(=O)=O)cc2)c(OC)c(OS(C)(=O)=O)c1-c1ccc(OS(=O)(=O)c2ccc(C)cc2)c(OS(C)(=O)=O)c1 [Compound I-395]	0.001 to 0.01	>1	>1	–	–	–
COc1cc(-c2ccc(O)cc2)c(OC)c(O)c1-c1ccc(S(=O)(=O)CC=C(C)C)c(O)c1 [Compound I-226]	0.017 (≈ 0.0361 µM)	0.3 (≈ 0.638 µM)	0.88 (≈ 1.87 µM)	–	–	–
COC(=O)c1ccc(-c2cc(OC)c(-c3ccc(OCc4ccc(C)cc4)c(OS(C)(=O)=O)c3)c(OS(C)(=O)=O)c2OC)cc1 [Compound I-239]	–	–	–	0.054 (≈ 0.0822 µM)	0.9 (≈ 1.37 µM)	> 1
